Source: ChEMBL document CHEMBL1201862, “PubChem BioAssay data set” (2004)
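How tested: cells in 96-well plates exposed to compound for 48 hours at five concentrations. GI50: concentration for 50% inhibition of growth.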 The source made the active and inactive calls. No stated cut-off is given here; in the data, active = GI50 up to about 1.1 µM and inactive = higher.

Key:
Experiment in all cases: NCI anticancer screen, dose series, 48 h
OVCAR-4 = tested on: OVCAR-4
A549 = tested on: A549
EKVX = tested on: EKVX
LXFL 529 = tested on: LXFL 529
UACC-257 = tested on: UACC-257
HCT-15 = tested on: HCT-15
HOP-62 = tested on: HOP-62
HOP-18 = tested on: HOP-18
M14 = tested on: M14
SN12C = tested on: SN12C
SW-620 = tested on: SW-620
KM-20L2 = tested on: KM-20L2
SNB-19 = tested on: SNB-19
SF-268 = tested on: SF-268
RPMI-8226 = tested on: RPMI-8226
TK-10 = tested on: TK-10
K562 = tested on: K562
NCI-H460 = tested on: NCI-H460
SK-MEL-28 = tested on: SK-MEL-28
OVCAR-5 = tested on: OVCAR-5
OVCAR-3 = tested on: OVCAR-3
U-251 = tested on: U-251
UO-31 = tested on: UO-31
A498 = tested on: A498
CAKI-1 = tested on: CAKI-1
DMS-114 = tested on: DMS-114
SK-MEL-5 = tested on: SK-MEL-5
MOLT-4 = tested on: MOLT-4
NCI-H522 = tested on: NCI-H522
KM12 = tested on: KM12
IGROV-1 = tested on: IGROV-1
OVCAR-8 = tested on: OVCAR-8
LOX IMVI = tested on: LOX IMVI
SK-MEL-2 = tested on: SK-MEL-2
SF-539 = tested on: SF-539
XF498 = tested on: XF498
SNB-75 = tested on: SNB-75
RXF 393 = tested on: RXF 393
HT-29 = tested on: HT-29
HL-60 = tested on: HL-60
NCI-H23 = tested on: NCI-H23
COLO 205 = tested on: COLO 205
CCRF-CEM = tested on: CCRF-CEM
SK-OV-3 = tested on: SK-OV-3
DMS-273 = tested on: DMS-273
Malme-3M = tested on: Malme-3M
UACC-62 = tested on: UACC-62
SF-295 = tested on: SF-295
ACHN = tested on: ACHN
786-0 = tested on: 786-0
NCI-H226 = tested on: NCI-H226
HOP-92 = tested on: HOP-92
SR = tested on: SR
HCT-116 = tested on: HCT-116
M19-MEL = tested on: M19-MEL
DLD-1 = tested on: DLD-1
SNB-78 = tested on: SNB-78

O=[N+]([O-])c1nccn1CC(O)c1ccccc1 (stereo not given) was tested, and the GI50 (OVCAR-4) was > 100 µM (inactive), the GI50 (A549) was > 100 µM (inactive) and the GI50 (EKVX) was > 100 µM (inactive). For the same molecule, the GI50 (LXFL 529) was > 100 µM (inactive), the GI50 (UACC-257) was > 100 µM (inactive) and the GI50 (HCT-15) was greater than 100 µM. For the same molecule, the GI50 (HOP-62) was > 100 µM (inactive), the GI50 (HOP-18) was > 100 µM (inactive) and the GI50 (M14) was > 100 µM (inactive). The GI50 (SN12C) was > 100 µM (inactive), the GI50 (SW-620) was > 100 µM (inactive) and the GI50 (KM-20L2) was > 100 µM (inactive). The GI50 (SNB-19) was > 100 µM (inactive), the GI50 (SF-268) was > 100 µM (inactive) and the GI50 (RPMI-8226) was > 100 µM (inactive). The GI50 (TK-10) was > 100 µM (inactive), the GI50 (K562) was > 100 µM (inactive) and the GI50 (NCI-H460) was > 100 µM (inactive). For the same molecule, the GI50 (SK-MEL-28) was > 100 µM (inactive), the GI50 (OVCAR-5) was > 100 µM (inactive) and the GI50 (OVCAR-3) was > 100 µM (inactive). The GI50 (U-251) was > 100 µM (inactive), the GI50 (UO-31) was > 100 µM (inactive) and the GI50 (A498) was > 100 µM (inactive). For the same molecule, the GI50 (CAKI-1) was > 100 µM (inactive), the GI50 (DMS-114) was > 100 µM (inactive) and the GI50 (SK-MEL-5) was > 100 µM (inactive). For the same molecule, the GI50 (MOLT-4) was > 100 µM (inactive), the GI50 (NCI-H522) was > 100 µM (inactive) and the GI50 (KM12) was > 100 µM (inactive). The GI50 (IGROV-1) was > 100 µM (inactive), the GI50 (OVCAR-8) was > 100 µM (inactive) and the GI50 (LOX IMVI) was > 100 µM (inactive). The GI50 (SK-MEL-2) was > 100 µM (inactive), the GI50 (SF-539) was > 100 µM (inactive) and the GI50 (XF498) was > 100 µM (inactive). The GI50 (SNB-75) was > 100 µM (inactive), the GI50 (RXF 393) was > 100 µM (inactive) and the GI50 (HT-29) was > 100 µM (inactive). For the same molecule, the GI50 (HL-60) was > 100 µM (inactive), the GI50 (NCI-H23) was > 100 µM (inactive) and the GI50 (COLO 205) was > 100 µM (inactive). The GI50 (CCRF-CEM) was > 100 µM (inactive), the GI50 (SK-OV-3) was > 100 µM (inactive) and the GI50 (DMS-273) was > 100 µM (inactive). For the same molecule, the GI50 (Malme-3M) was > 100 µM (inactive), the GI50 (UACC-62) was > 100 µM (inactive) and the GI50 (SF-295) was > 100 µM (inactive). For the same molecule, the GI50 (ACHN) was > 100 µM (inactive), the GI50 (786-0) was > 100 µM (inactive) and the GI50 (NCI-H226) was > 100 µM (inactive). The GI50 (HOP-92) was > 100 µM (inactive).
For CC(=O)Nc1ccc(-c2nnc(SCC(=O)Nc3ccccc3[N+](=O)[O-])o2)cc1, the GI50 (OVCAR-4) was 73.1 µM (inactive), the GI50 (A549) was > 100 µM (inactive) and the GI50 (LXFL 529) was 29.9 µM (inactive). For the same molecule, the GI50 (SR) was 40.7 µM (inactive), the GI50 (UACC-257) was > 100 µM (inactive) and the GI50 (HCT-15) was greater than 100 µM. For the same molecule, the GI50 (HOP-62) was > 100 µM (inactive), the GI50 (HOP-18) was > 100 µM (inactive) and the GI50 (M14) was > 100 µM (inactive). For the same molecule, the GI50 (SN12C) was > 100 µM (inactive), the GI50 (SW-620) was > 100 µM (inactive) and the GI50 (KM-20L2) was > 100 µM (inactive). The GI50 (SF-268) was > 100 µM (inactive), the GI50 (RPMI-8226) was > 100 µM (inactive) and the GI50 (TK-10) was > 100 µM (inactive). For the same molecule, the GI50 (K562) was 93.1 µM (inactive), the GI50 (NCI-H460) was > 100 µM (inactive) and the GI50 (SK-MEL-28) was > 100 µM (inactive). For the same molecule, the GI50 (OVCAR-5) was > 100 µM (inactive), the GI50 (OVCAR-3) was 34.4 µM (inactive) and the GI50 (U-251) was > 100 µM (inactive). The GI50 (UO-31) was 81.3 µM (inactive), the GI50 (CAKI-1) was > 100 µM (inactive) and the GI50 (DMS-114) was 27.9 µM (inactive). For the same molecule, the GI50 (SK-MEL-5) was > 100 µM (inactive), the GI50 (MOLT-4) was 71.4 µM (inactive) and the GI50 (NCI-H522) was 45.9 µM (inactive). The GI50 (HCT-116) was > 100 µM (inactive), the GI50 (KM12) was > 100 µM (inactive) and the GI50 (IGROV-1) was > 100 µM (inactive). The GI50 (M19-MEL) was > 100 µM (inactive), the GI50 (OVCAR-8) was > 100 µM (inactive) and the GI50 (LOX IMVI) was > 100 µM (inactive). The GI50 (SK-MEL-2) was > 100 µM (inactive), the GI50 (SF-539) was 34.6 µM (inactive) and the GI50 (SNB-75) was 92.7 µM (inactive). For the same molecule, the GI50 (RXF 393) was > 100 µM (inactive), the GI50 (HT-29) was > 100 µM (inactive) and the GI50 (DLD-1) was > 100 µM (inactive). For the same molecule, the GI50 (HL-60) was 52 µM (inactive), the GI50 (NCI-H23) was > 100 µM (inactive) and the GI50 (SNB-78) was > 100 µM (inactive). The GI50 (COLO 205) was > 100 µM (inactive), the GI50 (CCRF-CEM) was > 100 µM (inactive) and the GI50 (SK-OV-3) was > 100 µM (inactive). The GI50 (DMS-273) was > 100 µM (inactive), the GI50 (Malme-3M) was > 100 µM (inactive) and the GI50 (UACC-62) was > 100 µM (inactive). The GI50 (SF-295) was 98.6 µM (inactive), the GI50 (ACHN) was > 100 µM (inactive) and the GI50 (786-0) was > 100 µM (inactive). For the same molecule, the GI50 (NCI-H226) was > 100 µM (inactive) and the GI50 (HOP-92) was > 100 µM (inactive).
